Assay results: patent publication US12291517B2, “Crystalline form of 6-(cyclopropanecarboxamido)-4-((2-methoxy-3-(1-methyl-1H-1,2,4-triazol-3-yl)phenyl)amino)-n-(methyl-D3) pyridazine-3-carboxamide” (Bristol-Myers Squibb Company, priority 2018, dated 2025)
Read-outs that look alike come from different tables or passages of the source.

Columns and labels:
[1] = Micro-dissolution comparative study of potential salts (pH transfer model); type: physicochemical; parameters: AUC pH 2-6.5 Mean / AUC pH 6-6.5 Mean: unit not given beside the values; details: for pH-effect Ratio: AUC pH 6-6.5 over AUC pH 2-6.5
[2] = Dog PK study, pH effect of free base vs. HCl salt; type: in vivo; details: for BA Mean / Cmax / Tmax / AUC(0-t): dog, capsule, 10 mg (1 mpk), famotidine treated (Famo); for Cmax / Tmax / AUC(0-t): in vivo, po, 1 mg/kg; for AUC(0-t): read-out: AUC0-24 h Mean
Source text: In famotidine treated dogs, the mean bioavailability of the HCl salt is 60% higher than the free base.

[3] = Dog PK study, pH effect of free base vs. HCl salt; type: in vivo; details: capsule, 10 mg (1 mpk), Penta
[4] = Physical and chemical stability of Form B on storage at different temperature and humidity; type: physicochemical
Description: Samples of Form B of Compound (I) were stored at different conditions of temperature and humidity for 4 weeks. The physical stability, characterized by DSC, TGA, and PXRD, were measured at 2 and 4 weeks.

[5] = Moisture sorption isotherm; type: physicochemical
Description: Moisture sorption isotherms were collected in a TA Instrument VTI-SA+Vapor Sorption Analyzer using approximately 10 mg of sample. The sample was dried at 60° C. until the loss rate of 0.0005 wt %/min was obtained for 10 minutes. The sample was tested at 25° C. and 3 or 4, 5, 15, 25, 35, 45, 50, 65, 75, 85, and 95% RH. Equilibration at each RH was reached when the rate of 0.0003 wt %/min for 35 minutes was achieved or a maximum of 600 minutes.

[6] = Physical and chemical stability of Form B on storage at different temperature and humidity; type: physicochemical; remark: listed apart in the source

[2H]C([2H])([2H])NC(=O)c1nnc(NC(=O)C2CC2)cc1Nc1cccc(-c2ncn(C)n2)c1OC [Compound (I), 6-(cyclopropanecarboxamido)-4-((2-methoxy-3-(1-methyl-1H-1,2,4-triazol-3-yl)phenyl)amino)-N-(methyl-d3)pyridazine-3-carboxamide]
pH-effect Ratio [1]: 0.27 | AUC pH 2-6.5 Mean [1]: 6094.11 | AUC pH 6-6.5 Mean [1]: 1640.60 | BA Mean [2]: 85.44% | Cmax [2]: 62.8 ng/mL | Tmax [2]: 3.5 h | AUC(0-t) [2]: 586 ng·h/mL | BA Mean [3]: 100.00% | Cmax ([3]; in vivo, po, 1 mg/kg): 122 ng/mL | Tmax ([3]; in vivo, po, 1 mg/kg): 2.5 h | AUC(0-t) ([3]; in vivo, po, 1 mg/kg, read-out: AUC0-24 h Mean): 975 ng·h/mL

Cl.[2H]C([2H])([2H])NC(=O)c1nnc(NC(=O)C2CC2)cc1Nc1cccc(-c2ncn(C)n2)c1OC [Form B of Compound (I), 6-(cyclopropanecarboxamido)-4-((2-methoxy-3-(1-methyl-1H-1,2,4-triazol-3-yl)phenyl)amino)-N-(methyl-d3)pyridazine-3-carboxamide HCl salt]
% Assay ([4]; 5° C. (control), 2 weeks): 98.32% | % Assay ([4]; 25° C./60% RH (closed), 2 weeks): 98.26% | % Assay ([4]; 40° C./75% RH (open), 4 weeks): 98.37% | % Assay ([4]; 50° C., 4 weeks): 98.40% | % Assay ([4]; HIL/UV, 4 weeks): 98.44% | Chemical stability ([4]; storage conditions of Table 3, up to 4 weeks): no measure change in chemical stability | Hygroscopicity [5]: non-hygroscopic | Moisture uptake ([5]; between 25 to 75% relative humidity at 25° C.): less than 0.5% | pH-effect Ratio [1]: 0.61 | Mitigation of the pH effect ([1]; comparison of salts): mitigates the pH effect better than MSA and sulfate (SO4) salts | AUC pH 2-6.5 Mean [1]: 12345.28 | AUC pH 6-6.5 Mean [1]: 7492.66 | BA Mean [2]: 160.90% | Cmax [2]: 180 ng/mL | Tmax [2]: 2 h | AUC(0-t) [2]: 1340 ng·h/mL | Mean bioavailability higher than the free base ([2]; famotidine treated dogs, 1 mpk): 60% | % Assay ([6]; 5° C., 1 Month, corrected for water and total volatiles): 100.3% | % Assay ([6]; 5° C., 2 weeks): 98.31% | % Assay ([6]; 5° C., 3 Months, corrected for water and total volatiles): 100.9% | % Assay ([6]; 5° C., 4 weeks): 98.40% | % Assay ([6]; 5° C., 6 Months, corrected for water and total volatiles): 100.3% | % Assay ([6]; 5° C., 12 Months, corrected for water and total volatiles): 100.2% | % Assay ([6]; 25° C./60% RH (closed), 1 Month, corrected for water and total volatiles): 98.8% | % Assay ([6]; 25° C./60% RH (closed), 3 Months, corrected for water and total volatiles): 100.9% | % Assay ([6]; 25° C./60% RH (closed), 4 weeks): 98.39% | % Assay ([6]; 25° C./60% RH (closed), 6 Months, corrected for water and total volatiles): 99.4% | % Assay ([6]; 25° C./60% RH (closed), 12 Months, corrected for water and total volatiles): 99.9% | % Assay ([6]; 40° C./75% RH (open), 1 Month, corrected for water and total volatiles): 99.8% | % Assay ([6]; 40° C./75% RH (open), 2 weeks): 98.29% | % Assay ([6]; 40° C./75% RH (open), 3 Months, corrected for water and total volatiles): 98.7% | % Assay ([6]; 40° C./75% RH (open), 6 Months, corrected for water and total volatiles): 101.0% | % Assay ([6]; 40° C./75% RH (open), 12 Months, corrected for water and total volatiles): 100.3% | % Assay ([6]; 50° C., 2 weeks): 98.32% | % Assay ([6]; HIL/UV, 2 weeks): 98.44% | Physical stability (physical form) ([6]; by DSC, TGA and PXRD at 2 and 4 weeks, different temperature and humidity conditions): No change in the physical form was detected | Physical or chemical degradation ([6]; tested temperature and humidity conditions): no significant physical or chemical degradation | % Assay ([6]; −20° C., 1 Month, corrected for water and total volatiles): 99.9%

CS(=O)(=O)O.[2H]C([2H])([2H])NC(=O)c1nnc(NC(=O)C2CC2)cc1Nc1cccc(-c2ncn(C)n2)c1OC [MSA salt]
pH-effect Ratio [1]: 0.45 | AUC pH 2-6.5 Mean [1]: 12045.08 | AUC pH 6-6.5 Mean [1]: 5368.76
